Patent US12209087B2, “AKT1 modulators” (Alterome Therapeutics, Inc., priority 2022, dated 2025)

target: T1, full length AKT E17K (Homo sapiens, UniProt P31749, E17K); assay: NanoBRET Target Engagement (TE) Assay; format: cell-based; settings: competitive displacement of tracer in cells, read-out: AKT1 E17K IC50
T1 construct: host or cells: HEK-293 (ATCC CRL-1573)
Source text: The NanoBRET™ Target Engagement (TE) Intracellular Kinase Assays are based on the NanoBRET™ System (Promega Corporation), an energy transfer technique designed to measure molecular proximity in living cells. The NanoBRET™ TE Assays measure the apparent affinity of test compounds by competitive displacement of the NanoBRET™ tracer compound, which is a cell permeable molecule engineered to be reversibly bound to a NanoLuc® luciferase-kinase fusion expressed in cells. For compound screening, when a test compound binds to the selected kinase, the BRET signal is attenuated. […] All cells were evaluated for viability prior to transfection and optimization of the transfection was done prior to experimentation. […] Following transfection, cells were washed and resuspended in Opti-MEM. NanoBRET assays were performed in white, 384-well plates (Corning) at a density of […]. All example compounds were prepared as concentrated stock solutions in DMSO (Sigma-Aldrich). Compounds are dissolved in DMSO to make 10 mM stock solution. […] A Labcyte ECHO 550 compound dispenser was used to facilitate compound transfer directly to cells. Cells were equilibrated for 2 hr with energy transfer probes and example compound prior to BRET measurements. […] For target engagement analysis, the energy transfer probes were added to the cells at concentrations optimized for the target in question (AKT E17K). Following compound incubation, NanoBRET NanoGlo Substrate (Promega Cat #N157D) and Extracellular Nanoluc Inhibitor (Promega Cat #N235C) was added according to the manufacturer's recommended protocol, and luminescence was measured on Envision Reader (Perkin Elmer) Multimode Luminometer equipped with 450 nm BPfilter (donor) and 600 nm LPfilter (acceptor), using 0.5 s integration time. Milli-BRET units (mBU) are calculated by multiplying the raw BRET values by 1000. Apparent tracer affinity values (EC50) were determined using the sigmoidal dose-response (variable slope).
Competitive displacement data were then plotted and data were fit to determine the EC50 value for each example compound.

T1 sequence (P31749 whole entry E17K): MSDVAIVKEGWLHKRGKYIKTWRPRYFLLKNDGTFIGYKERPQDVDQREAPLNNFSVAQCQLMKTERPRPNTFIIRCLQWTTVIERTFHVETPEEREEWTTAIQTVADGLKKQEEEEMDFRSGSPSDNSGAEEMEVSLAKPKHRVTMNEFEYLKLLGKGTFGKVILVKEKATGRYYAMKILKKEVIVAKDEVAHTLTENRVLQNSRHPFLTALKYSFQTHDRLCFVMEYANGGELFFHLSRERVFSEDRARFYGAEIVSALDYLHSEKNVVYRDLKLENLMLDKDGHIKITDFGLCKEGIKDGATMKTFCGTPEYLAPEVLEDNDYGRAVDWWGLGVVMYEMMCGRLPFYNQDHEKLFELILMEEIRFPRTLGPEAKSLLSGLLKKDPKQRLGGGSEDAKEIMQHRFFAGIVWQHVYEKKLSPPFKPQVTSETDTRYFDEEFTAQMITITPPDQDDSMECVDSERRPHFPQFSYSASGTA

| IC50 [nM] | SMILES |
| --- | --- |
| < 15 | N#Cc1ncnc(N2C[C@H]3CN(Cc4ccc(-n5c(-c6cccnc6N)nc6ccc(-c7ccccc7)nc65)cc4)C[C@H]3C2)n1 [Example 340, 4-((3aR,6aS)-5-(4-(2-(2-Aminopyridin-3-yl)-5-phenyl-3H-imidazo[4,5-b]pyridin-3-yl)benzyl)hexahydropyrrolo[3,4-c]pyrrol-2(1H)-yl)-1,3,5-triazine-2-carbonitrile] |
| 15 to 60 | N#Cc1ccc(-c2ccc3nc(-c4cccnc4N)n(-c4ccc(CN5CCC(Nc6ccnc(C#N)n6)CC5)cc4)c3n2)nc1 [Example 418, 4-((1-(4-(2-(2-Aminopyridin-3-yl)-5-(5-cyanopyridin-2-yl)-3H-imidazo[4,5-b]pyridin-3-yl)benzyl)piperidin-4-yl)amino)pyrimidine-2-carbonitrile] |
| < 15 | Cc1ccccc1-c1ccc2nc(-c3cccnc3N)n(-c3ccc(CN4CCC(Nc5ccnc(C#N)n5)CC4)cc3)c2n1 [Example 527, 4-((1-(4-(2-(2-Aminopyridin-3-yl)-5-(o-tolyl)-3H-imidazo[4,5-b]pyridin-3-yl)benzyl)piperidin-4-yl)amino)pyrimidine-2-carbonitrile] |
| < 15 | COc1ncccc1-c1ccc2nc(-c3cccnc3N)n(-c3ccc(CN4CCC(Nc5ccnc(C#N)n5)CC4)cc3)c2n1 [Example 537, 4-((1-(4-(2-(2-Aminopyridin-3-yl)-5-(2-methoxypyridin-3-yl)-3H-imidazo[4,5-b]pyridin-3-yl)benzyl)piperidin-4-yl)amino)pyrimidine-2-carbonitrile] |
| 15 to 60 | N#Cc1ncnc(N2CCC3(CCN(Cc4ccc(-n5c(-c6cccnc6N)nc6ccc(-c7ccccc7)nc65)cc4)CC3)C2)n1 [Example 363, 4-(8-(4-(2-(2-Aminopyridin-3-yl)-5-phenyl-3H-imidazo[4,5-b]pyridin-3-yl)benzyl)-2,8-diazaspiro[4.5]decan-2-yl)-1,3,5-triazine-2-carbonitrile] |
| 15 to 60 | N#Cc1nccc(NC2CCC3(CC2)CN(Cc2ccc(-n4c(-c5cccnc5N)nc5ccc(-c6ccc(F)cc6)nc54)cc2)C3)n1 [Example 446, 4-((2-(4-(2-(2-Aminopyridin-3-yl)-5-(4-fluorophenyl)-3H-imidazo[4,5-b]pyridin-3-yl)benzyl)-2-azaspiro[3.5]nonan-7-yl)amino)pyrimidine-2-carbonitrile] |
| < 15 | [2H]C([2H])(F)Oc1ccc(-c2ccc3nc(-c4cccnc4N)n(-c4ccc(CN5CCC(Nc6ccnc(C#N)n6)CC5)cc4)c3n2)cn1 [Example 623, 4-((1-(4-(2-(2-Aminopyridin-3-yl)-5-(6-(fluoromethoxy-d2)pyridin-3-yl)-3H-imidazo[4,5-b]pyridin-3-yl)benzyl)piperidin-4-yl)amino)pyrimidine-2-carbonitrile] |
| 600 to 10000 | Cn1c(-c2ccc3nc(-c4cccnc4N)n(-c4ccc(CN5CCN(c6ccnc(C#N)n6)CC5)cc4)c3n2)cccc1=O [Example 394, 4-(4-(4-(2-(2-Aminopyridin-3-yl)-5-(1-methyl-6-oxo-1,6-dihydropyridin-2-yl)-3H-imidazo[4,5-b]pyridin-3-yl)benzyl)piperazin-1-yl)pyrimidine-2-carbonitrile] |
| 60 to 600 | CS(=O)(=O)c1ccc2nc(-c3cccnc3N)n(-c3ccc(CN4CCC(Nc5ccnc(C#N)n5)CC4)cc3)c2n1 [Example 436, 4-((1-(4-(2-(2-Aminopyridin-3-yl)-5-(methylsulfonyl)-3H-imidazo[4,5-b]pyridin-3-yl)benzyl)piperidin-4-yl)amino)pyrimidine-2-carbonitrile] |
| 60 to 600 | N#Cc1cc(N2CCN(Cc3ccc(-n4c(-c5cccnc5N)nc5ccc(-c6ccc(Cl)cc6)nc54)cc3)CC2)ncn1 [Example 344, 6-(4-(4-(2-(2-Aminopyridin-3-yl)-5-(4-chlorophenyl)-3H-imidazo[4,5-b]pyridin-3-yl)benzyl)piperazin-1-yl)pyrimidine-4-carbonitrile] |
| 15 to 60 | N#Cc1nccc(NC2CCN(Cc3ccc(-n4c(-c5ccccc5)nc5ccc(-c6ccc(F)cn6)nc54)cc3)CC2)n1 [Example 577, 4-((1-(4-(5-(5-Fluoropyridin-2-yl)-2-phenyl-3H-imidazo[4,5-b]pyridin-3-yl)benzyl)piperidin-4-yl)amino)pyrimidine-2-carbonitrile] |
| 15 to 60 | N#Cc1nccc(NC2CCN(Cc3ccc(-n4c(-c5cccnc5N)nc5ccc(O)nc54)cc3)CC2)n1 [Example 496, 4-((1-(4-(2-(2-Aminopyridin-3-yl)-5-hydroxy-3H-imidazo[4,5-b]pyridin-3-yl)benzyl)piperidin-4-yl)amino)pyrimidine-2-carbonitrile] |

same assay, conditions: competitive tracer displacement in living cells, read-out: AKT1 E17K IC50

| IC50 [nM] | SMILES |
| --- | --- |
| 60 to 600 | N#Cc1nccc(C(=O)NC2CCN(Cc3ccc(-n4c(-c5cccnc5N)nc5cccnc54)cc3)CC2)n1 [Example 32, N-(1-(4-(2-(2-Aminopyridin-3-yl)-3H-imidazo[4,5-b]pyridin-3-yl)benzyl)piperidin-4-yl)-2-cyanopyrimidine-4-carboxamide] |
| 600 to 10000 | N#Cc1cccc(C(=O)NC2CCN(Cc3ccc(-n4c(-c5cccnc5N)nc5cccnc54)cc3)CC2)n1 [Example 30, N-(1-(4-(2-(2-Aminopyridin-3-yl)-3H-imidazo[4,5-b]pyridin-3-yl)benzyl)piperidin-4-yl)-6-cyanopicolinamide] |
| 60 to 600 | C[C@@H]1CN(Cc2ccc(-n3c(-c4cccnc4N)nc4ccc(-c5ccccc5)nc43)cc2)C[C@@H](C)N1c1nccc(C#N)n1 [Example 196, 2-((2R,6R)-4-(4-(2-(2-aminopyridin-3-yl)-5-phenyl-3H-imidazo[4,5-b]pyridin-3-yl)benzyl)-2,6-dimethylpiperazin-1-yl)pyrimidine-4-carbonitrile] |
| < 15 | N#Cc1ccnc(NC2CCN(Cc3ccc(-n4c(-c5cccnc5N)nc5ccc(-c6ccccc6)nc54)cc3)CC2)n1 [Example 90, 2-((1-(4-(2-(2-Aminopyridin-3-yl)-5-phenyl-3H-imidazo[4,5-b]pyridin-3-yl)benzyl)piperidin-4-yl)amino)pyrimidine-4-carbonitrile] |
| 600 to 10000 | N#Cc1cc(C(=O)NC2CCN(Cc3ccc(-n4c(-c5cccnc5N)nc5cc(-c6ccccc6)cnc54)cc3)CC2)ccn1 [Example 107, N-(1-(4-(2-(2-Aminopyridin-3-yl)-6-phenyl-3H-imidazo[4,5-b]pyridin-3-yl)benzyl)piperidin-4-yl)-2-cyanoisonicotinamide] |
| < 15 | N#Cc1nccc(NC2CCN(Cc3ccc(-n4c(-c5cccnc5N)nc5ccc(C6CC6)nc54)cc3)CC2)n1 [Example 298, 4-((1-(4-(2-(2-Aminopyridin-3-yl)-5-cyclopropyl-3H-imidazo[4,5-b]pyridin-3-yl)benzyl)piperidin-4-yl)amino)pyrimidine-2-carbonitrile] |
| 60 to 600 | N#Cc1cc(N2CCN(Cc3ccc(-n4c(-c5cccnc5N)nc5cccnc54)cc3)CC2)ncn1 [Example 21, 6-(4-(4-(2-(2-Aminopyridin-3-yl)-3H-imidazo[4,5-b]pyridin-3-yl)benzyl)piperazin-1-yl)pyrimidine-4-carbonitrile] |
| 60 to 600 | N#Cc1ccc(C(=O)NC2CCN(Cc3ccc(-n4c(-c5cccnc5N)nc5ccc(-c6ccccc6)nc54)cc3)CC2)nc1 [Example 81, N-(1-(4-(2-(2-Aminopyridin-3-yl)-5-phenyl-3H-imidazo[4,5-b]pyridin-3-yl)benzyl)piperidin-4-yl)-5-cyanopicolinamide] |
| 60 to 600 | N#Cc1cc(NC2CCN(Cc3ccc(-n4c(-c5cccnc5N)nc5ccc(-c6ccccc6Cl)nc54)cc3)CC2)ncn1 [Example 307, 6-((1-(4-(2-(2-Aminopyridin-3-yl)-5-(2-chlorophenyl)-3H-imidazo[4,5-b]pyridin-3-yl)benzyl)piperidin-4-yl)amino)pyrimidine-4-carbonitrile] |
| 600 to 10000 | N#Cc1cc(NCc2ccc(-n3c(-c4cccnc4N)nc4cccnc43)cc2)ncn1 [Example 135, 6-((4-(2-(2-aminopyridin-3-yl)-3H-imidazo[4,5-b]pyridin-3-yl)benzyl)amino)pyrimidine-4-carbonitrile] |
| 600 to 10000 | N#Cc1ncc(NCc2ccc(-n3c(-c4cccnc4N)nc4cccnc43)cc2)cn1 [Example 95, 5-((4-(2-(2-Aminopyridin-3-yl)-3H-imidazo[4,5-b]pyridin-3-yl)benzyl)amino)pyrimidine-2-carbonitrile] |
| 600 to 10000 | N#Cc1cccc(N2CCN(Cc3ccc(-n4c(-c5cccnc5N)nc5cccnc54)cc3)CC2)n1 [Example 15, 6-(4-(4-(2-(2-Aminopyridin-3-yl)-3H-imidazo[4,5-b]pyridin-3-yl)benzyl)piperazin-1-yl)picolinonitrile] |
| 600 to 10000 | N#Cc1ccnc(N2CCN(Cc3ccc(-n4c(-c5cccnc5N)nc5cccnc54)cc3)CC2)n1 [Example 20, 2-(4-(4-(2-(2-aminopyridin-3-yl)-3H-imidazo[4,5-b]pyridin-3-yl)benzyl)piperazin-1-yl)pyrimidine-4-carbonitrile] |
